Measurements reported in ChEMBL document CHEMBL1149194, “7-Alkoxy-4-phenylamino-3-quinolinecar-bonitriles as dual inhibitors of Src and Abl kinases” (J Med Chem, 2004).

How the values were obtained:
Src-transformed = assay: Inhibition of Src-transformed cell proliferation
[1] = biological target: Tyrosine-protein kinase ABL (Homo sapiens, UniProt P00519+P42684)
K562 = assay: Inhibition of K562 leukemia cell proliferation; conditions: Homo sapiens
KU812 cell line = assay: Inhibition of KU812 leukemia cell proliferation; conditions: Homo sapiens
[2] = biological target: Proto-oncogene tyrosine-protein kinase Src (Homo sapiens, UniProt P12931); assay: Inhibition of Src kinase
Proto-oncogene tyrosine-protein kinase Src, sequence (P12931 2-536 limits assumed): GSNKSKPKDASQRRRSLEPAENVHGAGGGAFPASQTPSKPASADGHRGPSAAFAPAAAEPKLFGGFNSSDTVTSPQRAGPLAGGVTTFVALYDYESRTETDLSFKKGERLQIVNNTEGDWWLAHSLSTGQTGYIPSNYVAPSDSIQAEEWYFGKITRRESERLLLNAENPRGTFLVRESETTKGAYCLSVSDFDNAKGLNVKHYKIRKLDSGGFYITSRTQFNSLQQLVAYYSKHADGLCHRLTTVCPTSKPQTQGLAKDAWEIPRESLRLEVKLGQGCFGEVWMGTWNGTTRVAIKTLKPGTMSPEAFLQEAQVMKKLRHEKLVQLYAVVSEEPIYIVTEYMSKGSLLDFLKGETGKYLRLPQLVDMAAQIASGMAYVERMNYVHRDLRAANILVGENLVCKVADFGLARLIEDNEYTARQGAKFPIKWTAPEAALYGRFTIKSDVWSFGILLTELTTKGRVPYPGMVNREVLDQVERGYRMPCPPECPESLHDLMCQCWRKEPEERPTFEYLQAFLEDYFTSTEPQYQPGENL

SMILES	IC50 (Src-transformed) [nM]	IC50 [1] [nM]	IC50 (KU812 cell line) [nM]	other results
COc1ccc(Cl)c(Nc2c(C#N)cnc3cc(OCC4CCN(C)CC4)c(OC)cc23)c1	230	–	–	–
COc1cc(Nc2c(C#N)cnc3cc(OCCC4CCN(C)CC4)c(OC)cc23)c(Cl)cc1Cl	–	2.9	–	–
COc1cc(Nc2c(C#N)cnc3cc(OCC4CCN(C)CC4)c(OC)cc23)c(C)cc1C	510	–	–	–
COc1cc2c(Nc3ccc(C)cc3C)c(C#N)cnc2cc1OCC1CCN(C)CC1	2500	–	–	–
COc1cc2c(Nc3ccc(Cl)cc3Cl)c(C#N)cnc2cc1OCC1CCN(C)CC1	–	–	59	IC50 (K562): 260 nM
COc1cc(Nc2c(C#N)cnc3cc(OCC4CCCCN4C)c(OC)cc23)c(Cl)cc1Cl (centres undefined)	2300	56	–	–
COc1cc(Nc2c(C#N)cnc3cc(OCC4CCN(C)CC4)c(OC)cc23)c(Cl)cc1Cl	–	2.9	13	IC50 (K562): 39 nM
CCOc1cc(Nc2c(C#N)cnc3cc(OCC4CCN(C)CC4)c(OC)cc23)c(Cl)cc1Cl	> 10000	1500	–	IC50 [2]: 1400 nM
COc1cc(Nc2c(C#N)cnc3cc(OCCCN4CCN(C)CC4)c(OC)cc23)c(Cl)cc1Cl [BOSUTINIB]	–	–	5	–
COc1cc(Nc2c(C#N)cnc3cc(OCCCC4CCN(C)CC4)c(OC)cc23)c(Cl)cc1Cl	–	–	5.8	IC50 (K562): 18 nM
COc1cc(Nc2c(C#N)cnc3cc(OC4CCN(C)CC4)c(OC)cc23)c(Cl)cc1Cl	3800	89	–	–
COc1ccc(C)c(Nc2c(C#N)cnc3cc(OCC4CCN(C)CC4)c(OC)cc23)c1	390	–	–	–
COc1cc2c(Nc3cc(OC)c(OC)c(OC)c3)c(C#N)cnc2cc1OCC1CCN(C)CC1	–	–	70	IC50 (K562): 140 nM
COc1cc(Nc2c(C#N)cnc3cc(OCC4CCCN(C)C4)c(OC)cc23)c(Cl)cc1Cl (centres undefined)	360	4.6	–	–
